Measurements published in patent publication US6897209B2, “Labelled factor XIIIa substrates” (GE Healthcare Limited, priority 1997, dated 2005).

How the values were obtained:
[1] = system: clots induced in rat inferior vena cava; experiment: Incorporation into clots induced in a rat model (rat inferior vena cava model); format: in vivo; conditions: rat IVC model; for Clot/Blood / Clot/Heart / Clot/Liver / Clot/Lung: 60 min; for % ID/g (clot uptake) / Relative conc (cpm/g of clot by dose/g animal): compound injected 5 min post-induction, clot removed after 60 min
Procedure: The rats (Male Wistar, 250-350 g) were anaesthetised with 15% urethane. After laparotomy, the vena cava was isolated and freed of surrounding fat tissue. […] The average weight of the clots formed in this model was around 27 mg, n=32, (5-50 mg range). The so compounds were injected 5 min post-induction. After 60 min the animals were sacrificed and the clot removed, weighed and counted. Other tissues e.g. blood, lung, heart, were also dissected and counted. The uptake of tracer into the clot was determined as the relative concentration (cpm/g of clot by dose/g animal ) and clot to background tissue.

[2] = Normal rat biodistribution; format: in vivo; conditions: i.v., male Wistar rats, Mean±SD n=3
Procedure: The resolution of a clot image is dependant on the combination of rate of incorporation of the radiopharmaceutical and its blood/tissues clearance rate. For this reason the biodistribution of several compounds has been determined in rats. Male Wistar (100-150 g) rats were injected i.v. with 0.1-0.2 ml of radiolabelled tracer solution (8 MBq/ml) and dissected at different times post-injection. The % ID in each of the selected tissues was measured. Some animals were kept in metabolism cages to be able to determine the % ID excreted in urine and faeces. The dissection times used for the majority of the agents was 2, 15, 30, 60, 240 min. Data are shown as % ID, Mean±SD, (n=3).

[3] = target: T1, human plasma clots (Homo sapiens, UniProt P00488); experiment: Incorporation into human plasma clots (in vitro plasma clot assay); format: biochemical; conditions: for % specific uptake*: % retained with thrombin − % retained no thrombin; for % retained in plasma clot assay (with thrombin): human plasma with thrombin and calcium chloride, 60 minutes, ca. 20° C.
T1 construct: Factor XIII is transformed into its active form Factor XIIIa by thrombin in the presence of calcium ions; from tissue; host or cells: human plasma, clotted in vitro with thrombin and calcium chloride
T1 sequence (P00488 39-732): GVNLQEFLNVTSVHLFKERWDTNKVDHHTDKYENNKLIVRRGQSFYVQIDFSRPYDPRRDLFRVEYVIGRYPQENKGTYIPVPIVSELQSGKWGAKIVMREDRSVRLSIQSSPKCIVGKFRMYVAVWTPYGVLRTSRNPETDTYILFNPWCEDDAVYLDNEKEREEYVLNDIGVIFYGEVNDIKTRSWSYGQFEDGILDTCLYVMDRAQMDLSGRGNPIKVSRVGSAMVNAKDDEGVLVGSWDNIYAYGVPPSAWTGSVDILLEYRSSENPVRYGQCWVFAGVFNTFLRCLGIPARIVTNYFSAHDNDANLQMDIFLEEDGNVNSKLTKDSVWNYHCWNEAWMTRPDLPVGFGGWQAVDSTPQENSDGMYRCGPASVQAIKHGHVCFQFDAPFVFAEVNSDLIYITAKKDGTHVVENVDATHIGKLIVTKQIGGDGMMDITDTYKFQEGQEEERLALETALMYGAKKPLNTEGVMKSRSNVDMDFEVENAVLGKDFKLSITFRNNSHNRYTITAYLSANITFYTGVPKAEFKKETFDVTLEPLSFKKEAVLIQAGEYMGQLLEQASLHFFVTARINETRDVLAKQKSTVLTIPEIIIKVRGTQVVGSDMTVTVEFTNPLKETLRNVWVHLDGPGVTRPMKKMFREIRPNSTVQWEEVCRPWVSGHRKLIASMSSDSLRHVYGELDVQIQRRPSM
Procedure: (§1) Incorporation of radiolabelled substrates into fibrin was investigated by induction of an in vitro human plasma clot in the following manner. To a siliconised 5 ml glass vial was added, (a) 800 μl of Tris(hydroxymethyl)aminomethane buffered saline pH 7.5 containing calcium chloride (50 mM Tris, 150 mM sodium chloride, 4 mM calcium chloride.), (b) 40 μl of physiological salt solution containing 100 units of thrombin per ml, (c) 400 μl of human plasma containing the radiolabelled substrate at a concentration of typically 10 kBq/ml. To aid induction of clot a roughened glass rod was added to the reaction vial. Control vials were prepared similarly but with the omission of thrombin and calcium chloride.
(§2) The proportion of total radioactivity was calculated by counting in suitable detection apparatus.
(§3) The fraction of radioactivity retained on the filter, after subtraction of the non-specific binding determined from the control, is a measure of incorporation into the filtered clots.

[4] = system: human plasma clots; experiment: as above; format: biochemical; conditions: control vials without thrombin and calcium chloride, 60 minutes
Procedure: as §1, §2, §3

[5] = target: T2, Factor XIIIa (Homo sapiens, UniProt P00488); experiment: Factor XIIIa dependency of incorporation (dimethylcasein uptake, normal vs Factor XIII deficient plasma); format: biochemical; conditions: 1 KBq/ml, 60 minutes; uptake in normal plasma minus Factor XIII deficient plasma
T2 construct: Factor XIII is transformed into its active form Factor XIIIa by thrombin in the presence of calcium ions; from tissue; host or cells: human plasma
T2 sequence (P00488 39-732 limits assumed): T1 sequence (P00488 39-732)
Procedure: The assay was changed by replacing the mercaptoethanol with aprotinin at a final concentration of 2 μg/ml, and dimethylcasein (DMC) was used instead of casein.

NCCCCCNS(=O)(=O)c1ccc(C(=O)NCCCNC(=O)c2ccc(NN)nc2)cc1 [Compound 24, N-[6-hydrazinopyridine-3-carbonyl]-N′-(4-N-(5-aminopentyl)amidosulphonyl)benzoyl propane-1,3-diamine]
Clot/Blood [1]: 1.8 | Clot/Heart [1]: 3.9 | Clot/Liver [1]: 0.93 | Clot/Lung [1]: 2.5 | % ID/g (clot uptake) [1]: 0.21 ± 0.02 % ID/g | Relative conc (cpm/g of clot by dose/g animal) [1]: 0.62 ± 0.1 | % ID Blood ([2]; 2 min post-injection): 18.2 ± 1.39 % ID | % ID GI Tract ([2]; 2 min post-injection): 7.48 ± 0.45 % ID | % ID Heart ([2]; 2 min post-injection): 0.73 + 0.1 % ID | % ID Kidney ([2]; 2 min post-injection): 10.2 ± 3.07 % ID | % ID Liver ([2]; 2 min post-injection): 5.38 ± 0.75 % ID | % ID Lung ([2]; 2 min post-injection): 1.99 ± 0.12 % ID | % ID Muscle ([2]; 2 min post-injection): 28.5 ± 0.25 % ID | % ID Urine ([2]; 2 min post-injection): 0.11 ± 0.1 % ID | % ID Blood ([2]; 15 min post-injection): 7.11 ± 1.29 % ID | % ID GI Tract ([2]; 15 min post-injection): 23.3 ± 6.5 % ID | % ID Heart ([2]; 15 min post-injection): 0.3 + 0.08 % ID | % ID Kidney ([2]; 15 min post-injection): 4.11 ± 1.31 % ID | % ID Liver ([2]; 15 min post-injection): 6.7 ± 1.21 % ID | % ID Lung ([2]; 15 min post-injection): 0.78 ± 0.16 % ID | % ID Muscle ([2]; 15 min post-injection): 17.9 ± 4.38 % ID | % ID Urine ([2]; 15 min post-injection): 8.64 ± 5.6 % ID | % ID Blood ([2]; 30 min post-injection): 3.86 ± 0.62 % ID | % ID GI Tract ([2]; 30 min post-injection): 31.5 ± 11.9 % ID | % ID Heart ([2]; 30 min post-injection): 0.13 + 0.03 % ID | % ID Kidney ([2]; 30 min post-injection): 2.52 ± 1.1 % ID | % ID Liver ([2]; 30 min post-injection): 3.67 ± 0.62 % ID | % ID Lung ([2]; 30 min post-injection): 0.39 ± 0.06 % ID | % ID Muscle ([2]; 30 min post-injection): 10.2 ± 1.09 % ID | % ID Urine ([2]; 30 min post-injection): 31.0 ± 9.41 % ID | % ID Blood ([2]; 60 min post-injection): 1.6 ± 0.57 % ID | % ID GI Tract ([2]; 60 min post-injection): 38.8 ± 9.6 % ID | % ID Heart ([2]; 60 min post-injection): 0.06 + 0.03 % ID | % ID Kidney ([2]; 60 min post-injection): 1.4 ± 0.38 % ID | % ID Liver ([2]; 60 min post-injection): 1.6 ± 0.29 % ID | % ID Lung ([2]; 60 min post-injection): 0.18 ± 0.06 % ID | % ID Muscle ([2]; 60 min post-injection): 3.62 ± 0.9 % ID | % ID Urine ([2]; 60 min post-injection): 44.9 ± 7.32 % ID | % ID Blood ([2]; 240 min post-injection): 0.29 ± 0.06 % ID | % ID GI Tract ([2]; 240 min post-injection): 46.3 ± 4.4 % ID | % ID Heart ([2]; 240 min post-injection): 0.02 + 0.01 % ID | % ID Kidney ([2]; 240 min post-injection): 0.92 ± 0.37 % ID | % ID Liver ([2]; 240 min post-injection): 0.3 ± 0.03 % ID | % ID Lung ([2]; 240 min post-injection): 0.05 ± 0.02 % ID | % ID Muscle ([2]; 240 min post-injection): 1.1 ± 0.32 % ID | % ID Urine ([2]; 240 min post-injection): 49.51 ± 4.62 % ID | % specific uptake* [3]: 13.8% | % retained in plasma clot assay (with thrombin) [3]: 14% | % retained in plasma clot assay (no thrombin) [4]: 0.2% | % specific DMC casein uptake [5]: 22.5%

CC(CNCc1ccccc1O)(CNCc1ccccc1O)CNC(=O)c1ccc(S(=O)(=O)NCCCCCN)cc1 [Compound 25, N,N′-bis-(2-hydroxybenzyl)-2-(4-N-(5-aminopentyl)amidosulphonyl)benzamidomethyl-2-methyl-propane-1,3-diamine]
Clot/Blood [1]: 3.3 | Clot/Heart [1]: 5 | Clot/Liver [1]: 0.65 | Clot/Lung [1]: 1.5 | % ID/g (clot uptake) [1]: 0.29 ± 0.09 % ID/g | Relative conc (cpm/g of clot by dose/g animal) [1]: 0.8 ± 0.2 | % ID Blood ([2]; 2 min post-injection): 23.0 ± 2.9 % ID | % ID GI Tract ([2]; 2 min post-injection): 8.53 ± 0.66 % ID | % ID Heart ([2]; 2 min post-injection): 0.74 + 0.1 % ID | % ID Kidney ([2]; 2 min post-injection): 5.37 ± 1.3 % ID | % ID Liver ([2]; 2 min post-injection): 13.6 ± 2.47 % ID | % ID Lung ([2]; 2 min post-injection): 3.42 ± 0.39 % ID | % ID Muscle ([2]; 2 min post-injection): 25.7 ± 2.0 % ID | % ID Urine ([2]; 2 min post-injection): 0.11 ± 0.06 % ID | % ID Blood ([2]; 15 min post-injection): 3.9 ± 0.17 % ID | % ID GI Tract ([2]; 15 min post-injection): 45.68 ± 4.1 % ID | % ID Heart ([2]; 15 min post-injection): 0.16 + 0.01 % ID | % ID Kidney ([2]; 15 min post-injection): 7.13 ± 0.4 % ID | % ID Liver ([2]; 15 min post-injection): 13.5 ± 0.14 % ID | % ID Lung ([2]; 15 min post-injection): 1.37 ± 0.03 % ID | % ID Muscle ([2]; 15 min post-injection): 8.93 ± 0.38 % ID | % ID Urine ([2]; 15 min post-injection): 4.62 ± 2.9 % ID | % ID Blood ([2]; 30 min post-injection): 2.12 ± 0.34 % ID | % ID GI Tract ([2]; 30 min post-injection): 54.7 ± 2.09 % ID | % ID Heart ([2]; 30 min post-injection): 0.1 + 0.03 % ID | % ID Kidney ([2]; 30 min post-injection): 5.6 ± 0.1 % ID | % ID Liver ([2]; 30 min post-injection): 9.66 ± 1.65 % ID | % ID Lung ([2]; 30 min post-injection): 1.17 ± 0.01 % ID | % ID Muscle ([2]; 30 min post-injection): 6.43 ± 0.41 % ID | % ID Urine ([2]; 30 min post-injection): 11.6 ± 2.0 % ID | % ID Blood ([2]; 60 min post-injection): 1.84 ± 0.19 % ID | % ID GI Tract ([2]; 60 min post-injection): 55.87 ± 2.5 % ID | % ID Heart ([2]; 60 min post-injection): 0.08 + 0.03 % ID | % ID Kidney ([2]; 60 min post-injection): 4.24 ± 0.4 % ID | % ID Liver ([2]; 60 min post-injection): 6.73 ± 0.48 % ID | % ID Lung ([2]; 60 min post-injection): 0.96 ± 0.11 % ID | % ID Muscle ([2]; 60 min post-injection): 4.95 ± 0.09 % ID | % ID Urine ([2]; 60 min post-injection): 17.5 ± 1.7 % ID | % ID Blood ([2]; 240 min post-injection): 0.62 ± 0.16 % ID | % ID GI Tract ([2]; 240 min post-injection): 71.3 ± 0.7 % ID | % ID Heart ([2]; 240 min post-injection): 0.02 + 0.01 % ID | % ID Kidney ([2]; 240 min post-injection): 3.19 ± 0.1 % ID | % ID Liver ([2]; 240 min post-injection): 3.97 ± 0.53 % ID | % ID Lung ([2]; 240 min post-injection): 0.21 ± 0.05 % ID | % ID Muscle ([2]; 240 min post-injection): 1.3 ± 0.38 % ID | % ID Urine ([2]; 240 min post-injection): 16.81 ± 0.43 % ID | % specific uptake* [3]: 12.9% | % retained in plasma clot assay (with thrombin) [3]: 15% | % retained in plasma clot assay (no thrombin) [4]: 1.9% | % specific DMC casein uptake [5]: 26%
